Experimental data published in patent US9409876B2, “Bradykinin receptor antagonists and pharmaceutical compositions containing them” (DOMPE' FARMACEUTICI S.P.A., priority 2013, dated 2016).

target: T1, BKB1 receptors (Homo sapiens, UniProt P46663); assay: Calcium Mobilization Assay (FLIPR), IMR-90 cells, BKB1; assay type: cell-based; conditions: IL-1 induced IMR-90 cells, agonist desArg10-kallidin (DAKD)
T1 construct: Human (IMR-90) lung fibroblast cells expressing native BKB1 receptors; endogenous in cells; host or cells: IMR-90 human lung fibroblasts, treated with human IL-1 to up-regulate BKB1
T1 sequence (P46663 1-353): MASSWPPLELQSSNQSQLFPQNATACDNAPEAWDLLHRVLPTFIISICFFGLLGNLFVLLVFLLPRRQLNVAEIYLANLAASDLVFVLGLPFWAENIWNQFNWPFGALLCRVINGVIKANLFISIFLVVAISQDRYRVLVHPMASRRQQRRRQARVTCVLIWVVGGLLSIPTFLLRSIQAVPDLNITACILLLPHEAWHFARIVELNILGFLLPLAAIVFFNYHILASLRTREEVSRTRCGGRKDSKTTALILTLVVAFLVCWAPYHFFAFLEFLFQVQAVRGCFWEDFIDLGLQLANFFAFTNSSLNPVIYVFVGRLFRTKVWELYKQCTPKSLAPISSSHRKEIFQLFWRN
Description: Calcium Mobilization Assay (FLIPR)—Human (IMR-90) lung fibroblast cells expressing native BKB1 receptors were harvested by trypsinization and seeded into black wall/clear bottom 96-well plates (Costar 3904; Corning Life Sciences, Acton, Mass.) at approximately 13,000 cells/well. After 1 day incubation, cells were treated with human IL-1 (0.35 ng/ml) in 10% FBS/MEM for 2 h to up-regulate BKB1 receptors. Induced cells were loaded with fluorescent calcium indicator by incubation with 2.3 µM Fluo-4/acetoxymethyl ester (Invitrogen) at 37° C. for 1.5 h in the presence of an anion transport inhibitor (2.5 mM probenecid in 1% FBS/MEM). Extracellular dye was removed by washing with assay buffer (2.5 mM probenecid, 0.1% BSA in 20 mM HEPES/HBSS without bicarbonate or phenol red, pH 7.5) and cell plates were kept in the dark until used. Test compounds were assayed at eight concentrations in triplicate.

SMILES	IC50 [nM]
COc1ccccc1CN(C(=O)Cn1nnc2ccccc21)C(C(=O)NCC1CCCO1)c1ccc(C)cc1 (centres unmarked) [1 (mix), 2-(1H-benzotriazol-1-yl)-N-(2-methoxybenzyl)-N-{1-(4-methylphenyl)-2-oxo-2-[(tetrahydrofuran-2-ylmethyl)amino]ethyl}acetamide]	1900
COc1ccccc1CN(C(=O)CC(C)C)C(C(=O)NCC1CCCO1)c1ccc(C)cc1 (centres unmarked) [8 (mix)]	418
COc1ccccc1CN(C(=O)Cc1ccccc1C)C(C(=O)NCC1CCCO1)c1ccc(C)cc1 (centres unmarked) [9 (mix)]	300
COc1ccccc1CN(C(=O)CN1C(=O)c2ccccc2C1=O)C(C(=O)NCC1CCCO1)c1ccc(C)cc1 (centres unmarked) [10 (mix), 2-(1,3-dioxoisoindolin-2-yl)-N-(2-methoxybenzyl)-N-{1-(4-methylphenyl)-2-oxo-2-[(tetrahydrofuran-2-ylmethyl)amino]-ethyl}acetamide]	300
COc1ccccc1CN(C(=O)Cc1c[nH]cn1)C(C(=O)NCC1CCCO1)c1ccc(C)cc1 (centres unmarked) [12 (mix), 2-(1H-imidazol-4-yl)-N-(2-methoxybenzyl)-N-{1-(4-methylphenyl)-2-oxo-2-[(tetrahydrofuran-2-ylmethyl)amino]ethyl}acetamide]	98
COc1ccccc1CC(=O)N(Cc1ccccc1OC)C(C(=O)NCC1CCCO1)c1ccc(C)cc1 (centres unmarked) [13 (mix)]	300
CCCCC(=O)N(Cc1ccccc1OC)C(C(=O)NCC1CCCO1)c1ccc(C)cc1 (centres unmarked) [14 (mix), N-(2-methoxybenzyl)-N-{1-(4-methylphenyl)-2-oxo-2-[(tetrahydrofuran-2-ylmethyl)amino]ethyl}pentanamide]	300
COc1ccccc1CN(C(=O)C1CCCC1)C(C(=O)NCC1CCCO1)c1ccc(C)cc1 (centres unmarked) [15 (mix), N-(2-methoxybenzyl)-N-{1-(4-methylphenyl)-2-oxo-2-[(tetrahydrofuran-2-ylmethyl)amino]ethyl}cyclopentanecarboxamide]	300
COc1ccccc1CN(C(=O)c1ccc(O)cc1)C(C(=O)NCC1CCCO1)c1ccc(C)cc1 (centres unmarked) [16 (mix), 4-hydroxy-N-(2-methoxybenzyl)-N-{1-(4-methylphenyl)-2-oxo-2-[(tetrahydrofuran-2-ylmethyl)amino]ethyl}benzamide]	1000
COc1ccccc1CN(C(=O)CCC(C)=O)C(C(=O)NCC1CCCO1)c1ccc(C)cc1 (centres unmarked) [17 (mix), 4-oxo-N-(2-methoxybenzyl)-N-{1-(4-methylphenyl)-2-oxo-2-[(tetrahydrofuran-2-ylmethyl)amino]ethyl}pentanamide]	1200
COc1ccccc1CN(C(=O)Cc1cccc(C)c1)C(C(=O)NCC1CCCO1)c1ccc(C)cc1 (centres unmarked) [18 (mix)]	300
COc1ccccc1CN(C(=O)Cc1ccc(C)cc1)C(C(=O)NCC1CCCO1)c1ccc(C)cc1 (centres unmarked) [19 (mix)]	1400
COc1ccccc1CN(C(=O)c1ccc(C)cc1)C(C(=O)NCC1CCCO1)c1ccc(C)cc1 (centres unmarked) [20 (mix), 4-methyl-N-(2-methoxybenzyl)-N-{1-(4-methylphenyl)-2-oxo-2-[(tetrahydrofuran-2-ylmethyl)amino]ethyl}benzamide]	6100
COc1ccccc1CN(C(=O)Cc1ccc(F)cc1)C(C(=O)NCC1CCCO1)c1ccc(C)cc1 (centres unmarked) [21 (mix)]	3500
COc1ccccc1CN(C(=O)c1ccc(F)cc1)C(C(=O)NCC1CCCO1)c1ccc(C)cc1 (centres unmarked) [22 (mix), 4-fluoro-N-(2-methoxybenzyl)-N-{1-(4-methylphenyl)-2-oxo-2-[(tetrahydrofuran-2-ylmethyl)amino]ethyl}benzamide]	8700
COc1ccccc1CN(C(=O)C1CCC(F)(F)CC1)C(C(=O)NCC1CCCO1)c1ccc(C)cc1 (centres unmarked) [23 (mix), 4,4-difluoro-N-(2-methoxybenzyl)-N-{1-(4-methylphenyl)-2-oxo-2-[(tetrahydrofuran-2-ylmethyl)amino]ethyl}cyclohexanecarboxamide]	8400

SMILES	IC50 [nM]
CCC(=O)N(Cc1ccccc1OC)C(C(=O)NCC1CCCO1)c1ccc(C)cc1 (centres unmarked) [24 (mix), N-(2-methoxybenzyl)-N-{1-(4-methylphenyl)-2-oxo-2-[(tetrahydrofuran-2-ylmethyl)amino]ethyl}propanamide]	13200
COc1ccccc1CN(C(=O)C1CCC1)C(C(=O)NCC1CCCO1)c1ccc(C)cc1 (centres unmarked) [25 (mix), N-(2-methoxybenzyl)-N-{1-(4-methylphenyl)-2-oxo-2-[(tetrahydrofuran-2-ylmethyl)amino]ethyl}cyclobutanecarboxamide]	15700
COc1ccccc1CN(C(=O)c1ccccc1[N+](=O)[O-])C(C(=O)NCC1CCCO1)c1ccc(C)cc1 (centres unmarked) [26 (mix), N-(2-methoxybenzyl)-2-nitro-N-{1-(4-methylphenyl)-2-oxo-2-[(tetrahydrofuran-2-ylmethyl)amino]ethyl}benzamide]	14400
COc1ccccc1CN(C(=O)C1CC1)C(C(=O)NCC1CCCO1)c1ccc(C)cc1 (centres unmarked) [27 (mix), N-(2-methoxybenzyl)-N-{1-(4-methylphenyl)-2-oxo-2-[(tetrahydrofuran-2-ylmethyl)amino]ethyl}cyclopropanecarboxamide]	15000
COc1ccccc1CN(C(=O)c1ccc([N+](=O)[O-])cc1)C(C(=O)NCC1CCCO1)c1ccc(C)cc1 (centres unmarked) [28 (mix), N-(2-methoxybenzyl)-4-nitro-N-{1-(4-methylphenyl)-2-oxo-2-[(tetrahydrofuran-2-ylmethyl)amino]ethyl}benzamide]	3000
COc1ccccc1CN(C(=O)Cc1ccc(N(C)C)cc1)C(C(=O)NCC1CCCO1)c1ccc(C)cc1 (centres unmarked) [29 (mix), 2-[(4-dimethylamino)phenyl]-N-(2-methoxybenzyl)-N-{1-(4-methylphenyl)-2-oxo-2-[(tetrahydrofuran-2-ylmethyl)amino]ethyl}acetamide]	2100
COc1ccccc1CN(C(=O)Cn1ccnn1)C(C(=O)NCC1CCCO1)c1ccc(C)cc1 (centres unmarked) [30 (mix), N-(2-methoxybenzyl)-N-{1-(4-methylphenyl)-2-oxo-2-[(tetrahydrofuran-2-ylmethyl)amino]ethyl}-2-(1H-1,2,3-triazol-1-yl)acetamide]	68
COc1ccccc1CN(C(=O)Cn1ccc2ccccc21)C(C(=O)NCC1CCCO1)c1ccc(C)cc1 (centres unmarked) [31 (mix), 2-(1H-indol-1-yl)-N-(2-methoxybenzyl)-N-{1-(4-methylphenyl)-2-oxo-2-[(tetrahydrofuran-2-ylmethyl)amino]ethyl}acetamide]	268
Cc1ccc(C(C(=O)NCC2CCCO2)N(CC2CCCC2)C(=O)Cc2c[nH]cn2)cc1 (centres unmarked) [32 (mix), N-(cyclopentylmethyl)-2-(1H-imidazol-4-yl)-N-{1-(4-methylphenyl)-2-oxo-2-[(tetrahydrofuran-2-ylmethyl)amino]ethyl}acetamide]	800
Cc1ccc(C(C(=O)NCC2CCCO2)N(CC2CCCCC2)C(=O)Cc2ccccc2C)cc1 (centres unmarked) [33 (mix), N-(cyclohexylmethyl)-2-(2-methylphenyl)-N-{1-(4-methylphenyl)-2-oxo-2-[(tetrahydrofuran-2-ylmethyl)amino]ethyl}acetamide]	1700
Cc1ccc(C(C(=O)NCC2CCCO2)N(CC2CCCCC2)C(=O)CN(C)C)cc1 (centres unmarked) [34 (mix), N-(cyclohexylmethyl)-2-(dimethylamino)-N-{1-(4-methylphenyl)-2-oxo-2-[(tetrahydrofuran-2-ylmethyl)amino]ethyl}acetamide]	1100
Cc1ccc(C(C(=O)NCC2CCCO2)N(Cc2cccc(C)c2)C(=O)CN(C)C)cc1 (centres unmarked) [35 (mix), 2-(dimethylamino)-N-(3-methylbenzyl)-N-{1-(4-methylphenyl)-2-oxo-2-[(tetrahydrofuran-2-ylmethyl)amino]ethyl}acetamide]	1700
Cc1ccc(C(C(=O)NCC2CCCO2)N(CC2CCCCC2)C(=O)Cc2c[nH]cn2)cc1 (centres unmarked) [36 (mix), N-(cyclohexylmethyl)-2-(1H-imidazol-4-yl)-N-{1-(4-methylphenyl)-2-oxo-2-[(tetrahydrofuran-2-ylmethyl)amino]ethyl}acetamide]	13800
Cc1ccc(C(C(=O)NCC2CCCO2)N(CC2CCCCC2)C(=O)Cc2ccccc2)cc1 (centres unmarked) [37 (mix), N-(cyclohexylmethyl)-2-phenyl-N-{1-(4-methylphenyl)-2-oxo-2-[(tetrahydrofuran-2-ylmethyl)amino]ethyl}acetamide]	6200
Cc1ccc(C(C(=O)NCC2CCCO2)N(Cc2cccc(C)c2)C(=O)C2CC2C)cc1 (centres unmarked) [38 (mix), 2-methyl-N-(3-methylbenzyl)-N-{1-(4-methylphenyl)-2-oxo-2-[(tetrahydrofuran-2-ylmethyl)amino]ethyl}cyclopropanecarboxamide]	12700
Cc1ccc(C(C(=O)NCC2CCCO2)N(Cc2csc3ccccc23)C(=O)CN(C)C)cc1 (centres unmarked) [39 (mix), N-(1-benzothiophen-3-ylmethyl)-2-(dimethylamino)-N-{1-(4-methylphenyl)-2-oxo-2-[(tetrahydrofuran-2-ylmethyl)amino]ethyl}acetamide]	1200
